In ChEMBL document CHEMBL1201862, “PubChem BioAssay data set” (2004):
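In this assay, cells in 96-well plates receive the compound at five concentrations for 48 hours. Endpoints are linearly interpolated between the surrounding concentrations. GI50: concentration for 50% inhibition of growth.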 Calls of active or inactive are those of the source. Rule as the data show it: active = GI50 up to about 1.1 µM and inactive = higher.

Tests used:
Assay in all cases: NCI tumour cell line growth inhibition, 48 h
A498 = tested on: A498
A549 = tested on: A549
ACHN = tested on: ACHN
CAKI-1 = tested on: CAKI-1
COLO 205 = tested on: COLO 205
HCT-15 = tested on: HCT-15
HT-29 = tested on: HT-29
KM12 = tested on: KM12
NCI-H226 = tested on: NCI-H226
NCI-H460 = tested on: NCI-H460
SF-268 = tested on: SF-268
SF-295 = tested on: SF-295
SK-MEL-28 = tested on: SK-MEL-28
SK-MEL-2 = tested on: SK-MEL-2
SK-MEL-5 = tested on: SK-MEL-5
SK-OV-3 = tested on: SK-OV-3
SR = tested on: SR
SW-620 = tested on: SW-620
UACC-257 = tested on: UACC-257
UO-31 = tested on: UO-31

Structure (SMILES)	GI50 (A498)	GI50 (A549)	GI50 (ACHN)	GI50 (CAKI-1)	GI50 (COLO 205)	GI50 (HCT-15) [µM]	GI50 (HT-29)	GI50 (KM12)	GI50 (NCI-H226)	GI50 (NCI-H460)	GI50 (SF-268)	GI50 (SF-295)	GI50 (SK-MEL-28)	GI50 (SK-MEL-2)	GI50 (SK-MEL-5)	GI50 (SK-OV-3)	GI50 (SR)	GI50 (SW-620)	GI50 (UACC-257)	GI50 (UO-31)
COc1ccc2c3c1OC1C(F)C=CC4(O)C(C2)NCCC314 (stereo not given)	4.47 µM (inactive)	7.23 µM (inactive)	2.65 µM (inactive)	0.962 µM (active)	1.44 µM (inactive)	2.37	2.54 µM (inactive)	3.33 µM (inactive)	11.2 µM (inactive)	4.97 µM (inactive)	2.59 µM (inactive)	9.18 µM (inactive)	3.07 µM (inactive)	2.38 µM (inactive)	3.94 µM (inactive)	2.92 µM (inactive)	0.92 µM (active)	1.37 µM (inactive)	11.1 µM (inactive)	1.55 µM (inactive)
Clc1ccc(C(SCc2ccccc2)SCc2ccccc2)cc1	> 10 µM (inactive)	> 10 µM (inactive)	> 10 µM (inactive)	> 10 µM (inactive)	> 10 µM (inactive)	> 10	> 10 µM (inactive)	> 10 µM (inactive)	> 10 µM (inactive)	> 10 µM (inactive)	> 10 µM (inactive)	> 10 µM (inactive)	> 10 µM (inactive)	> 10 µM (inactive)	> 10 µM (inactive)	> 10 µM (inactive)	> 10 µM (inactive)	> 10 µM (inactive)	> 10 µM (inactive)	> 10 µM (inactive)
